Assay results taken from patent US10966426B2, “Herbicidal compositions comprising phenylpyrimidines” (BASF SE, priority 2016, dated 2021).

Key:
Type in all cases: in vivo
Lolium multiflorum = experiment: greenhouse post-emergence treatment, LOLMU; conditions: Lolium multiflorum, 480 h, LOLMU, chlorotoluron solo 500 gai/ha, 20 DAT
Outline: (§1)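 Seeds sown per species in loamy sand substrate (about 3.0% humus); some raised separately and transplanted shortly before treatment. Treatments applied in water post-emergence, plants held at 10-25° C. or 20-35° C. by species, then scored after 2 to 4 weeks, where 100 means total kill and 0 no damage.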

Ambrosia elatior [1] = experiment: greenhouse pre-emergence treatment, AMBEL; conditions: Ambrosia artemisiifolia, 480 h, AMBEL, 20 DAT
Outline: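 Damage rated on 0 to 100 scale (0 = normal growth, 100 = no emergence or total above-ground kill) after 2-4 weeks at species-dependent 10-25° C or 20-35° C. Seeds sown per species in loamy sand, ~3.0% humus, treated right after sowing with aqueous spray of single actives or 10% emulsion-concentrate mixtures, then hooded; additive expectation by Colby.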

Alopecurus myosuroides = experiment: greenhouse post-emergence treatment, ALOMY; conditions: Alopecurus myosuroides, 480 h, ALOMY, 20 DAT
Outline: as §1

Papaver rhoeas = experiment: greenhouse post-emergence treatment, PAPRH; conditions: Papaver rhoeas, 480 h, PAPRH, 20 DAT
Outline: (§2)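 Foliar application to greenhouse-grown plants 3–15 cm tall in humus-containing loamy sand; response assessed on a 0–100 scale after 2–4 weeks, with Colby's E=X+Y−(X·Y/100) as the additive expectation.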

Echinocloa crus-galli = experiment: greenhouse post-emergence treatment, ECHCG; conditions: ECHCG, 20 DAT
Outline: as §2

Bromus sterilis = experiment: greenhouse post-emergence treatment, BROST; conditions: Bromus sterilis, 480 h, BROST, 20 DAT
Outline: as §1

Brachiaria decumbens = experiment: greenhouse post-emergence treatment, BRADC; conditions: Urochloa decumbens, 480 h, 20 DAT, BRADC
Outline: (§3)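 Post-emergence greenhouse spray on 3–15 cm plants, sown direct or transplanted a few days before treatment. Scored visually on a 0–100 scale after 2 to 4 weeks; expected additive effect computed by Colby: E=X+Y−(X·Y/100).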

Setaria viridis = experiment: greenhouse post-emergence treatment, SETVI; conditions: Setaria viridis, 480 h, 20 DAT, SETVI, Table X3, read-out: % activity, solo application
Outline: as §1

Ambrosia elatior [2] = experiment: greenhouse post-emergence treatment, AMBEL; conditions: AMBEL, 20 DAT
Outline: as §3

Digitaria sanguinalis = experiment: greenhouse post-emergence treatment, DIGSA; conditions: Digitaria sanguinalis, 480 h, 20 DAT, DIGSA
Outline: as §1

Poa annua = experiment: greenhouse post-emergence treatment, POAAN; conditions: Poa annua, 480 h, POAAN, bentazon solo 60 gai/ha, 20 DAT
Outline: as §3

[3] = chlorotoluron solo 125 gai/ha, read-out: % activity
[4] = chlorotoluron solo 250 gai/ha, read-out: % activity
[5] = 120 gai/ha (SL 480 g/l), Table X3, read-out: % activity, solo application
[6] = 30 gai/ha (SL 480 g/l), Table X3, read-out: % activity, solo application
[7] = 60 gai/ha (SL 480 g/l), Table X3, read-out: % activity, solo application

Cc1ccc(NC(=O)N(C)C)cc1Cl [chlorotoluron]
pest or weed control at 500 g/ha (Lolium multiflorum): 80% | pest or weed control at 125 g/ha (Ambrosia elatior [1]; chlorotoluron solo 125 gai/ha): 0% | pest or weed control at 500 g/ha (Ambrosia elatior [1]; chlorotoluron solo 500 gai/ha): 40% | pest or weed control at 125 g/ha (Alopecurus myosuroides; [3]): 30% | pest or weed control at 250 g/ha (Alopecurus myosuroides; [4]): 40% | pest or weed control at 500 g/ha (Alopecurus myosuroides; chlorotoluron solo 500 gai/ha): 65% | pest or weed control at 62.5 g/ha (Papaver rhoeas; chlorotoluron solo 62.5 gai/ha): 0% | pest or weed control at 125 g/ha (Papaver rhoeas; [3]): 0% | pest or weed control at 250 g/ha (Papaver rhoeas; [4]): 20% | pest or weed control at 500 g/ha (Papaver rhoeas; chlorotoluron solo 500 gai/ha, read-out: % activity): 25% | % activity (Echinocloa crus-galli; chlorotoluron solo 500 gai/ha): 65% | pest or weed control at 62.5 g/ha (Bromus sterilis; chlorotoluron solo 62.5 gai/ha, read-out: % activity): 0% | pest or weed control at 125 g/ha (Bromus sterilis; [3]): 0%

CC(C)N1C(=O)c2ccccc2NS1(=O)=O [bentazon]
inhibition at 120 g/ha (Alopecurus myosuroides; [5]): 0% | inhibition at 240 g/ha (Alopecurus myosuroides; 240 gai/ha (SL 480 g/l), Table X3, read-out: % activity, solo application): 0% | pest or weed control at 60 g/ha (Alopecurus myosuroides; bentazon solo 60 gai/ha): 0% | pest or weed control at 240 g/ha (Alopecurus myosuroides; bentazon solo 240 gai/ha): 0% | inhibition at 30 g/ha (Brachiaria decumbens; [6]): 0% | inhibition at 60 g/ha (Brachiaria decumbens; [7]): 0% | inhibition at 120 g/ha (Brachiaria decumbens; [5]): 0% | pest or weed control at 30 g/ha (Brachiaria decumbens; bentazon solo 30 gai/ha): 0% | pest or weed control at 60 g/ha (Brachiaria decumbens; bentazon solo 60 gai/ha): 0% | pest or weed control at 240 g/ha (Brachiaria decumbens; bentazon solo 240 gai/ha): 20% | inhibition at 120 g/ha (Papaver rhoeas; [5]): 0% | pest or weed control at 30 g/ha (Papaver rhoeas; bentazon solo 30 gai/ha): 0% | pest or weed control at 60 g/ha (Papaver rhoeas; bentazon solo 60 gai/ha): 0% | pest or weed control at 120 g/ha (Papaver rhoeas; bentazon solo 120 gai/ha): 0% | % activity (Echinocloa crus-galli; bentazon solo 30 gai/ha): 0% | % activity (Echinocloa crus-galli; bentazon solo 60 gai/ha): 0% | % activity (Echinocloa crus-galli; bentazon solo 120 gai/ha): 0% | % activity (Echinocloa crus-galli; bentazon solo 240 gai/ha): 20% | inhibition at 60 g/ha (Echinocloa crus-galli; Echinochloa crus-galli, 480 h, 60 gai/ha (SL 480 g/l), Table X3, read-out: % activity, solo application): 0% | inhibition at 120 g/ha (Echinocloa crus-galli; Echinochloa crus-galli, 480 h, 120 gai/ha (SL 480 g/l), Table X3, read-out: % activity, solo application): 0% | inhibition at 240 g/ha (Echinocloa crus-galli; Echinochloa crus-galli, 480 h, 240 gai/ha (SL 480 g/l), Table X3, read-out: % activity, solo application): 20% | inhibition at 60 g/ha (Setaria viridis; 60 gai/ha (SL 480 g/l)): 0% | inhibition at 240 g/ha (Setaria viridis; 240 gai/ha (SL 480 g/l)): 30% | % activity (Ambrosia elatior [2]; bentazon solo 30 gai/ha): 60% | % activity (Ambrosia elatior [2]; bentazon solo 60 gai/ha): 60% | inhibition at 60 g/ha (Bromus sterilis; [7]): 0% | pest or weed control at 30 g/ha (Bromus sterilis; bentazon solo 30 gai/ha): 0% | pest or weed control at 60 g/ha (Bromus sterilis; bentazon solo 60 gai/ha): 0% | pest or weed control at 120 g/ha (Bromus sterilis; bentazon solo 120 gai/ha): 0% | pest or weed control at 240 g/ha (Bromus sterilis; bentazon solo 240 gai/ha): 0% | inhibition at 30 g/ha (Digitaria sanguinalis; [6]): 0% | inhibition at 60 g/ha (Digitaria sanguinalis; [7]): 0% | pest or weed control at 30 g/ha (Digitaria sanguinalis; bentazon solo 30 gai/ha): 0% | pest or weed control at 60 g/ha (Digitaria sanguinalis; bentazon solo 60 gai/ha): 0% | pest or weed control at 120 g/ha (Digitaria sanguinalis; bentazon solo 120 gai/ha): 0% | pest or weed control at 240 g/ha (Digitaria sanguinalis; bentazon solo 240 gai/ha): 30% | pest or weed control at 60 g/ha (Poa annua): 0%
